The values below come from PMC9605374 (Marine Drugs, 2022).

Read-outs that look alike come from different tables or passages of the source.

Series [1] has as its system LNCaP. More on the design: method as in PMID 27355960. The settings on record: cited from earlier work.
Series [2] has as its system 22Rv1. More on the design: method as in PMID 27355960. The conditions noted are these: cited from earlier work.
Series [3] relates to 22Rv1. Description: MTT assay, cell viability. Type of series: cell-based. The conditions noted are these: Homo sapiens, 22Rv1, 48 h of treatment, mean ± SD. From the text: (§1) To examine the anticancer potential and selectivity of NB, we used a panel of six human prostate cancer cell lines, harboring different levels of treatment resistance to representatively reflect the heterogeneity of the disease. […] Additionally, four human noncancer cells lines were utilized in order to determine the selectivity of NB towards prostate cancer cells, i.e., prostate noncancer PNT2 and RWPE-1 cells, human embryonic kidney HEK 293T cells, and human fibroblasts MRC-9. The different cell lines were treated with NB and the cell viability was examined using MTT assay (Figure 1). The mean IC50 of NB and docetaxel (used as a reference substance) in noncancerous cell lines was divided by the mean IC50 in the prostate cancer cell lines to determine the selectivity index (SI).
(§2) The MTT assay was used to monitor the effect of the drugs on cell viability in terms of metabolic activity, as previously reported. First, preincubation of the cells in 96-well plates (6 × 10^3 cells/well in 100 μL/well) was performed overnight in the correspondent culture medium. Next, the medium was exchanged for fresh medium containing the investigated compounds or a vehicle (100 μL/well). Cells were then incubated for 48 h, unless otherwise stated. Then, 10 μL/well of 3-(4,5-dimethylthiazol-2-yl)-2,5-diphenyltetrazolium bromide reagent (MTT, 5 mg/mL) were added. After 2–4 h of additional incubation the media was removed, and the plates were dried. Finally, 50 μL/well of DMSO were added to solve the formed formazan crystals produced by the metabolic active cells and Infinite F200PRO reader (TECAN, Männedorf, Switzerland) was used to measure the cell viability. The results were proceeded with a GraphPad Prism software v.9.1.1 (GraphPad Software, San Diego, CA, USA). Cells treated with the solvent of the drugs alone were used as a control (100% alive cells). The effect of the drugs on cell viability is represented as IC50.

The subject of series [4] is LNCaP. As to the kind of experiment: MTT assay, cell viability. The series is classed as cell-based. The settings on record: Homo sapiens, 48 h of treatment, mean ± SD.
Description: as §1, §2
Background: Tetrazolium assays rely on reduction of a dye to a coloured formazan, in cell work by metabolically active cells.

In another series the test system is PC3. Description: MTT assay, cell viability. The series is classed as cell-based. The settings on record: Homo sapiens, PC-3, PC3, 48 h of treatment, mean ± SD.
Description: as §1, §2

The subject of a further series is PNT2. As to the kind of experiment: MTT assay, cell viability. The settings on record: Homo sapiens, PNT2, 48 h of treatment, mean ± SD. The series is classed as cell-based.
Description: as §1, §2

The subject of the next series is VCaP. Description: MTT assay, cell viability. Type of series: cell-based. The settings on record: Homo sapiens, 48 h of treatment, mean ± SD.
Description: as §1, §2

In another series the test system is DU145. As to the kind of experiment: MTT assay, cell viability. The series is classed as cell-based. The settings on record: Homo sapiens, DU-145, DU145, 48 h of treatment, mean ± SD.
Description: as §1, §2

The test system of a further series is RWPE-1. As to the kind of experiment: MTT assay, cell viability. Type of series: cell-based. The conditions noted are these: Homo sapiens, RWPE-1, 48 h of treatment, mean ± SD.
Description: as §1, §2

Another series concerns HEK293. Description: MTT assay, cell viability. Type of series: cell-based. The conditions noted are these: Homo sapiens, HEK293, 48 h of treatment, mean ± SD.
Description: as §1, §2

The next series relates to MRC-9. As to the kind of experiment: MTT assay, cell viability. Type of series: cell-based. The conditions noted are these: Homo sapiens, MRC9, MRC-9, 48 h of treatment, mean ± SD.
Description: as §1, §2

In series [5] the target is p-glycoprotein (p-gp, MDR1) in PC3-DR cells (Homo sapiens, UniProt P08183). Description: Calcein-AM exclusion assay, p-glycoprotein activity.
Sequence of p-glycoprotein (p-gp, MDR1) in PC3-DR cells (P08183 whole entry): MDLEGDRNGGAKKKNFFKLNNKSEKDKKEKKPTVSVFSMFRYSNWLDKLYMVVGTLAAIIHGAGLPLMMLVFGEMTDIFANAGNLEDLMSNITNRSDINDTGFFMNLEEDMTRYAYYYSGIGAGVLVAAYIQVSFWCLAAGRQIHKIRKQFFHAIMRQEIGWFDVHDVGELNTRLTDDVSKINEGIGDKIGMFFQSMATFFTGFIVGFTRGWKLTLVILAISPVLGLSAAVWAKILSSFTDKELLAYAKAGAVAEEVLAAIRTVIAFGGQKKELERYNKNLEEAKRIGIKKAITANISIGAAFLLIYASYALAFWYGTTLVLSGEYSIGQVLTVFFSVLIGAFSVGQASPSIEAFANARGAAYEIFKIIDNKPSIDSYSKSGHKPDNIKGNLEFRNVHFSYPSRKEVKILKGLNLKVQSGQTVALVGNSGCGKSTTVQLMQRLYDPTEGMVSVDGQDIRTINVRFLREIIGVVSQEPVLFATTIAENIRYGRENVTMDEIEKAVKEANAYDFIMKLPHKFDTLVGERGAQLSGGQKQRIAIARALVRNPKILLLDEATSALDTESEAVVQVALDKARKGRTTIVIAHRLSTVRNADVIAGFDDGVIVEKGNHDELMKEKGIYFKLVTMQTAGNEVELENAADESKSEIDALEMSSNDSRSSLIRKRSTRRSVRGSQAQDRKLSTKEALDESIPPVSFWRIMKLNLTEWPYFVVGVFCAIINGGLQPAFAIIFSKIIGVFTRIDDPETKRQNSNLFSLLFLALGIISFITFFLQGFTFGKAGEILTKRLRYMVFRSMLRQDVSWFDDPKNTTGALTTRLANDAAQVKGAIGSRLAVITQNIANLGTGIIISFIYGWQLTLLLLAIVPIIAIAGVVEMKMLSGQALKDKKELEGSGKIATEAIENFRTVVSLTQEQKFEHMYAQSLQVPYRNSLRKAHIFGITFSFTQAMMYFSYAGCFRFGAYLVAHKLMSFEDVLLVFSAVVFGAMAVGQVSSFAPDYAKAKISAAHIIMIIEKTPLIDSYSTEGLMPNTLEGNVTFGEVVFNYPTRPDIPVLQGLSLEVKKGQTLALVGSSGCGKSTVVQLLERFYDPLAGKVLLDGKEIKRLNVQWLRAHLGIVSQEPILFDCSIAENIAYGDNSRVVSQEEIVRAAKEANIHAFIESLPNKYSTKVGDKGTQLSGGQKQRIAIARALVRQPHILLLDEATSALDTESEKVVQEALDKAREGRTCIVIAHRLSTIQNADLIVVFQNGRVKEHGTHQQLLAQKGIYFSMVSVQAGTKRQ
Description: To further understand the interactions of NB and p-gp, and the effect of NB on p-gp activity, we performed a calcein-AM-exclusion assay. Consequently, p-gp overexpressing PC3-DR cells were chosen as a test model. This assay utilizes calcein-AM (calcein acetoxymethyl ester), a nonfluorescent dye that enters cells through passive diffusion and exits cells through p-gp. Metabolic active cells contain cytosolic esterases that hydrolyze calcein-AM into its green-fluorescent form (calcein). The green fluorescence can be further measured. However, in p-gp overexpressing cells, calcein-AM is excreted out of the cell before it is metabolized. […] Application of p-gp inhibitors, such as tariquidar (TQD), leads to the accumulation of calcein-AM/calcein inside the cells and, therefore, to increased fluorescence. […] In our experiments, PC3-DR cells were exposed to NB for 30 min followed by incubation with calcein-AM.
(A) Effect of NB on calcein accumulation (measures as green fluorescence) in PC3-DR cells. The effect was measures following 30 min incubation with the drug. P-gp inhibitor tariquidar (TQD, 50 nM) was used as a positive control. Number of replicates n = 3.
The experiment was performed as previously described [42]. […] The green fluorescence was measured with Infinite F200PRO reader (TECAN, Männedorf, Switzerland). […]
Series [6] deals with serine-/threonine kinases (JNK1/2, p38) in 22Rv1 cells. Description: Kinome profiling of serine/threonine kinases (PamGene), upstream kinase analysis. The series is classed as cell-based, human. The conditions noted are these: 22Rv1, 1 µM and 10 µM, 2 h. From the text:
To further investigate the mechanism of anticancer action of NB, we examined the effects of the compound on serine-/threonine protein kinases. Protein kinases modify target molecules (proteins) via phosphorylation, thus, altering their activity. A subgroup of these kinases—serine-/threonine kinases (STK)—play a key role in various essential processes related to cell death and cell survival. Consequently, protein kinases, in general, are important target molecules for various anticancer drugs. Specifically, modification of STKs’ activity has been exploited as a mechanism of action. Several clinically approved drugs, such as sunitinib, palbociclib, cobimetinib, and axitinib, utilize this mechanism to execute their therapeutic action. Thus, we performed functional kinomics using the microarray-based PamGene technology. This method allows a systematic examination of the changes in STK activity (http://www.pamgene.de, accessed on 22 January 2022, Figure 5A–D). We used two different concentrations, specifically, 1 µM and 10 µM, in order to cover different biological effects, which may take place at the different drug doses (Figure 5A). […]
Figure 5 Kinome profiling of serine/threonine kinases (STKs). 22Rv1 cells were incubated with NB for 2 h; the proteins were extracted and STK were analyzed using functional kinome profiling. […]

For `COc1ccc(C2SSC34CC5(O)C(Cl)C=CC(O)C5ON3C(=O)C2N(C)C4=O)c(O)c1OC` (centres unmarked) [NB, N-methylpretrichodermamide B], the IC50 in the series on LNCaP [1] is 1.76 µM; in the series on 22Rv1 [2], 0.51 µM; in the series with 22Rv1 [3] it was 3.02 ± 2.5 µM; with LNCaP [4], 12.2 ± 2.97 µM; in the series with PC3, 6.03 ± 1.18 µM; in the series with PNT2, 25.1 ± 5.92 µM. The IC50 was found to be 0.143 ± 0.145 µM in the series on VCaP; 13 ± 2.69 µM with DU145; 16.4 ± 1.87 µM with RWPE-1; 9.3 ± 1.57 µM in the series with HEK293; 11.1 ± 4.3 µM in the series with MRC-9. The “calcein accumulation (green fluorescence), p-gp inhibition” value in series [5] (30 min exposure, nanomolar concentrations, dose-dependent) is on record as “significantly increased the green fluorescence”. Besides, the “concentration at which an inhibitory effect on p-gp activity was already detected” value in series [5] (calcein-AM, noncytotoxic concentration) is 312.5 nM. Also, the “upstream kinase analysis, JNK1/2 and p38 kinases” value in series [6] is “very likely upregulated”.

For orientation: IC50 means the concentration that gives 50% inhibition.
